Data on one compound can be found in patent US20220288001A1, “CREATINE FOR IMMUNOTHERAPY” (The Regents of the University of California, priority 2019, published 2022).

Series [1] deals with tumor-infiltrating CD8 T cells. Briefly: Flow cytometry phenotype of tumor-infiltrating CD8 T cells in B16-OVA model. It is filed as in vivo, mouse. The conditions noted are these: B16-OVA tumors collected day 17; creatine supplementation. From the text:
Fluorochrome-conjugated monoclonal antibodies specific for mouse CD45.2 (cat #109820; clone 104), TCRβ (cat #109220; clone H57-597), CD4 (cat #100531; clone RM4-5), IFN-γ (cat #505806; clone XMG1.2), Granzyme B (cat #372208; clone QA16A02). TCR Vα2 (cat #127809; clone B20.1), CD69 (cat #104508; clone H1.2F3), CD25 (cat #102006; clone PC61), CD8 (cat #100732: clone 53-6.7), CD44 (cat #103030; clone IM7), LAG-3 (CD223) (cat #125207; clone C9B7W), and Tim-3 (CD366) (cat #119705; clone RMT3-23) were purchased from BioLegend. […] Stained cells were analyzed using a MACSQuant Analyzer 10 Flow Cytometer (Miltenyi Biotee). […] To assess gene expression, CD45^+ immune cells were sorted from TIIs using flow cytometry then analyzed for CrT mRNA expression using qPCR. To assess T cell activation status, TIIs were analyzed for surface activation marker (CD25 and PD-1) expression using flow cytometry. […] TIIs were analyzed for intracellular Granzyme B expression using flow cytometry. To assess T cell cytokine production, Tis were stimulated with PMA (50 ng/ml)+Ionomycine (500 ng/ml) in the presence of GolgiStop (4 μl per 6 ml culture) for 4 hours, then analyzed for intracellular cytokine (IL-2 and IFN-γ) production using flow cytometry. […]
In general terms: In flow cytometry, cells or beads pass a laser one at a time.

The conditions of series [2]: humans (Kreider et al., 2017); cited from earlier work.
The next series concerns MC38 colon cancer. The series can be described thus: MC38 colon cancer model, creatine supplementation and anti-PD-1 treatment. Format: in vivo, mouse. The settings on record: MC38 (CrT-negative); creatine supplementation alone. The method, then:
To establish solid tumors, mice were s.c. injected above the right flank with 1×10^6 B16-OVA or 3×10^5 MC38 cells. Before injection, cells in log phase of growth were harvested and suspended in phosphate-buffered saline (PBS), and 50 μl of cell suspension were injected subcutaneously above the flank. Tumor size was periodically measured with a digital Vernier caliper (Thermo Fisher Scientific). For creatine supplementation via i.p. injection, […] monohydrate (cat #C3630, Sigma-Aldrich) was dissolved in sterile PBS and i.p. injected to experimental animals daily at a dose of 10.5 mg per animal per injection. To study the combination effects of creatine supplementation and PD-1/PD-L1 blockade treatment, B6 mice were inoculated with MC38 tumor cells and monitored for tumor growth; experimental mice also received i.p. supplement of creatine, as well as i.p. injection of an anti-PD-1 blocking antibody (clone RMP1-14; 300 μg/mouse/injection, twice per week) or an isotype control antibody (clone 2A3; 300 μg/mouse/injection, twice per week), alone or in combination. Tumor-free mice were maintained for three months, then challenged with MC38 tumor cells again and monitored for tumor recurrence over another 6-month period.

Another series deals with B16-OVA tumors. The series can be described thus: B16-OVA tumors in C57BL/6J WT mice depleted of T cells by anti-CD3 antibody, creatine supplementation. The settings on record: B16-OVA in C57BL/6J WT mice depleted of T cells via i.p. anti-CD3 depletion antibody. It is filed as in vivo, mouse. Here is the method:
To establish solid tumors, mice were s.c. injected above the right flank with 1×10^6 B16-OVA or 3×10^5 MC38 cells. Before injection, cells in log phase of growth were harvested and suspended in phosphate-buffered saline (PBS), and 50 μl of cell suspension were injected subcutaneously above the flank. Tumor size was periodically measured with a digital Vernier caliper (Thermo Fisher Scientific). For creatine supplementation via i.p. injection, […] monohydrate (cat #C3630, Sigma-Aldrich) was dissolved in sterile PBS and i.p. injected to experimental animals daily at a dose of 10.5 mg per animal per injection. To study the effects of creatine supplementation on suppressing tumor growth, B6 mice were inoculated with B16-OVA tumor cells and monitored for tumor growth, with or without receiving creatine supplementation via i.p. injection or diet. […] To study the T cell-dependence of creatine supplementation induced anti-tumor effects, B6-OVA tumor growth was monitored and compared in B6 mice receiving i.p. injection of an anti-CD3 T cell depleting antibody ([…]; 100 μg/mouse/injection, twice per week) or an isotype control antibody (clone LTF-2, 100 μg/mouse/injection, twice per week), with or without i.p. supplement of creatine.

Another series has as its system cancer growth. The conditions noted are these: early studies (Kristensen et al., 1999; Miller et al., 1993); cited from earlier work.

With `CN(CC(=O)O)C(=N)N` [creatine], in series [1], the ““exhaustion-prone” phenotype cells (PD-1hiCD62Llo) among tumor-infiltrating CD8 T cells” value is listed as “significant reduction”. The “safety of long-term supplementation” value in series [2] is reported as “well-documented safety”. The tumor suppression entry in the series with MC38 colon cancer is reported as “tumor suppression benefits”. The tumor growth entry in the series on B16-OVA tumors is listed as “could not be suppressed”. Besides, the “direct inhibition of cancer growth” value in the series on cancer growth is “could directly inhibit cancer growth”.
